Data from patent US5190741A, “Agents for diagnosing and treating melanomas, aromatic halogenated derivatives usable as such agents and their preparation” (Institut National de la Sante et de la Recherche Medicale …, priority 1989, dated 1993).
Like-named read-outs stand apart in the source and are kept apart here.

Legend:
[1] = tested on: Beu melanic human melanoma; assay: Autoradiograms, nu/nu SSCUP nude mice bearing Beu; type: in vivo
Description: The autoradiograms are carried out in mice bearing grafted melanomas:
b. nu/nu SSCUP nudes bearing heterotransplants of melanic (Beu) or amelanic (Dau) human melanomas).
The animals bearing grafted tumors receive the labelled compounds in the form of the hydrochloride in saline solution (3.7 to 5×10^5 Bq/animal) in a caudal vein. At different time intervals after the administration of the compounds (from 15 minutes to 24 hours) the mice are anesthetized with ether and plunged into liquid nitrogen.
30 μm sections, parallel to a sagittal plane, are prepared in a freezing microtome (TS 260, SLEE) according to the protocol described by Ullberg.

[2] = Tissue distribution in C57 BL6 mice bearing B16; type: in vivo, mouse; conditions: mouse, iv, 3 umol/animal
Description: (§1) The study of the tissue distribution of the ^125 I labelled compounds was performed in mice bearing grafted melanomas (cf. autoradiograms above). […] The animals are sacrificed at different time intervals of 1 to 24 hours after the injection. The blood is collected and the principal organs are excised. Aliquots are weighed and the radioactivity of the samples is measured in a […] 1191 counter (analytic tracer). The counting yield for iodine 125 is 60%. The results are expressed: as a percentage of the injected dose bound per g of tissue (% ID/g); in the form of the ratios [formula] This ratio reflects more precisely the selectivity of a molecule for an organ (tables 2, 4, 6, 8, 10 and 12).

B16 murine melanoma = assay: Tissue distribution in C57 BL6 mice bearing B16; type: in vivo, mouse
Description: as §1

[3] = kidney, read-out: kidney % ID/g
[4] = muscle, read-out: muscle % ID/g
[5] = plasma, read-out: plasma % ID/g

Compound: CCNCCNC(=O)c1ccc(I)cc1 [Derivative B, N-(2-ethylaminoethyl) 4-iodo benzamide]
- darkening along the circumference of the tumor ([1]; 6 h after injection): more pronounced darkening along the circumference of the tumor
- time up to which tumor is visible on autoradiogram ([1]; after injection): up to 6 h
- tissue uptake at 1 h ([2]; blood, read-out: blood % ID/g): 1.31 %ID/g
- tissue uptake at 2 h ([2]; blood, read-out: blood % ID/g): 0.67 %ID/g
- tissue uptake at 4 h ([2]; blood, read-out: blood % ID/g): 0.27 %ID/g
- tissue uptake at 6 h ([2]; blood, read-out: blood % ID/g): 0.14 %ID/g
- tissue uptake at 24 h ([2]; blood, read-out: blood % ID/g): 0.03 %ID/g
- tissue uptake at 1 h ([2]; brain, read-out: brain % ID/g): 3.26 %ID/g
- tissue uptake at 2 h ([2]; brain, read-out: brain % ID/g): 2.09 %ID/g
- tissue uptake at 4 h ([2]; brain, read-out: brain % ID/g): 1.17 %ID/g
- tissue uptake at 6 h ([2]; brain, read-out: brain % ID/g): 0.5 %ID/g
- tissue uptake at 24 h ([2]; brain, read-out: brain % ID/g): 0.01 %ID/g
- tissue uptake at 1 h ([2]; eye, read-out: eye % ID/g): 0.45 %ID/g
- tissue uptake at 2 h ([2]; eye, read-out: eye % ID/g): 0.43 %ID/g
- tissue uptake at 4 h ([2]; eye, read-out: eye % ID/g): 0.42 %ID/g
- tissue uptake at 6 h ([2]; eye, read-out: eye % ID/g): 0.38 %ID/g
- tissue uptake at 24 h ([2]; eye, read-out: eye % ID/g): 0.24 %ID/g
- tissue uptake at 1 h [2, 3]: 14.4 %ID/g
- tissue uptake at 2 h [2, 3]: 8.64 %ID/g
- tissue uptake at 4 h [2, 3]: 4.42 %ID/g
- tissue uptake at 6 h [2, 3]: 1.86 %ID/g
- tissue uptake at 24 h [2, 3]: 0.16 %ID/g
- tissue uptake at 1 h ([2]; liver, read-out: liver % ID/g): 6.96 %ID/g
- tissue uptake at 2 h ([2]; liver, read-out: liver % ID/g): 3.72 %ID/g
- tissue uptake at 4 h ([2]; liver, read-out: liver % ID/g): 2.05 %ID/g
- tissue uptake at 6 h ([2]; liver, read-out: liver % ID/g): 0.96 %ID/g
- tissue uptake at 24 h ([2]; liver, read-out: liver % ID/g): 0.22 %ID/g
- tissue uptake at 1 h ([2]; lung, read-out: lungs % ID/g): 14.4 %ID/g
- tissue uptake at 2 h ([2]; lung, read-out: lungs % ID/g): 8 %ID/g
- tissue uptake at 4 h ([2]; lung, read-out: lungs % ID/g): 4.49 %ID/g
- tissue uptake at 6 h ([2]; lung, read-out: lungs % ID/g): 2.1 %ID/g
- tissue uptake at 24 h ([2]; lung, read-out: lungs % ID/g): 0.05 %ID/g
- tissue uptake at 1 h [2, 4]: 2.55 %ID/g
- tissue uptake at 2 h [2, 4]: 1.33 %ID/g
- tissue uptake at 4 h [2, 4]: 0.67 %ID/g
- tissue uptake at 6 h [2, 4]: 0.2 %ID/g
- tissue uptake at 24 h [2, 4]: 0.02 %ID/g
- tissue uptake at 1 h [2, 5]: 0.73 %ID/g
- tissue uptake at 2 h [2, 5]: 0.4 %ID/g
- tissue uptake at 4 h [2, 5]: 0.21 %ID/g
- tissue uptake at 6 h [2, 5]: 0.13 %ID/g
- tissue uptake at 24 h [2, 5]: 0.02 %ID/g
- tissue uptake at 1 h ([2]; tumor, read-out: tumor % ID/g): 6.03 %ID/g
- tissue uptake at 2 h ([2]; tumor, read-out: tumor % ID/g): 5.73 %ID/g
- tissue uptake at 4 h ([2]; tumor, read-out: tumor % ID/g): 4.36 %ID/g
- tissue uptake at 6 h ([2]; tumor, read-out: tumor % ID/g): 4.69 %ID/g
- tissue uptake at 24 h ([2]; tumor, read-out: tumor % ID/g): 0.49 %ID/g
- intratumoral concentrations and ratios compared with A (B16 murine melanoma; 4 to 8 h, melanic melanomas, preliminary): markedly higher than those observed with A
- brain/blood ratio (B16 murine melanoma; 1 h): 2,48
- eye/blood ratio (B16 murine melanoma; 1 h): 9,70
- kidney/blood ratio (B16 murine melanoma; 1 h): 10,92
- liver/blood ratio (B16 murine melanoma; 1 h): 5,32
- lungs/blood ratio (B16 murine melanoma; 1 h): 11,00
- muscle/blood ratio (B16 murine melanoma; 1 h): 1,95
- plasma/blood ratio (B16 murine melanoma; 1 h): 0,56
- tumor/blood ratio (B16 murine melanoma; 1 h): 4,70
- brain/blood ratio (B16 murine melanoma; 2 h): 3,11
- eye/blood ratio (B16 murine melanoma; 2 h): 17,50
- kidney/blood ratio (B16 murine melanoma; 2 h): 12,82
- liver/blood ratio (B16 murine melanoma; 2 h): 5,55
- lungs/blood ratio (B16 murine melanoma; 2 h): 11,94
- muscle/blood ratio (B16 murine melanoma; 2 h): 1,96
- plasma/blood ratio (B16 murine melanoma; 2 h): 0,60
- tumor/blood ratio (B16 murine melanoma; 2 h): 8,51
- brain/blood ratio (B16 murine melanoma; 4 h): 4,33
- eye/blood ratio (B16 murine melanoma; 4 h): 39,70
- kidney/blood ratio (B16 murine melanoma; 4 h): 16,38
- liver/blood ratio (B16 murine melanoma; 4 h): 7,58
- lungs/blood ratio (B16 murine melanoma; 4 h): 16,64
- muscle/blood ratio (B16 murine melanoma; 4 h): 2,49
- plasma/blood ratio (B16 murine melanoma; 4 h): 0,79
- tumor/blood ratio (B16 murine melanoma; 4 h): 16,17
- brain/blood ratio (B16 murine melanoma; 6 h): 3,51
- eye/blood ratio (B16 murine melanoma; 6 h): 73
- kidney/blood ratio (B16 murine melanoma; 6 h): 13,04
- liver/blood ratio (B16 murine melanoma; 6 h): 6,80
- lungs/blood ratio (B16 murine melanoma; 6 h): 14,66
- muscle/blood ratio (B16 murine melanoma; 6 h): 1,47
- plasma/blood ratio (B16 murine melanoma; 6 h): 0,90
- tumor/blood ratio (B16 murine melanoma; 6 h): 36
- contrast index of melanic tumors vs neighbouring muscles or organs, compared with A (B16 murine melanoma; 6 hours): the majority of these indices are higher for B than for A
- brain/blood ratio (B16 murine melanoma; 24 h): 0,46
- eye/blood ratio (B16 murine melanoma; 24 h): 200
- kidney/blood ratio (B16 murine melanoma; 24 h): 5,24
- liver/blood ratio (B16 murine melanoma; 24 h): 7,49
- lungs/blood ratio (B16 murine melanoma; 24 h): 1,74
- muscle/blood ratio (B16 murine melanoma; 24 h): 0,75
- plasma/blood ratio (B16 murine melanoma; 24 h): 0,77
- tumor/blood ratio (B16 murine melanoma; 24 h): 16
- concentrations and tumor/blood ratios compared with A (B16 murine melanoma; 24 hours, melanic melanomas, preliminary): lower than those of A
- marker of the B16 murine melanoma (B16 murine melanoma; mouse, in vivo): markers of the B16 murine melanoma
